# Measured values taken from patent publication US20240075029A1, “LUMINOL FOR THE PROPHYLAXIS AND THE TREATMENT OF SEQUELAE OF A SARS-COV-2 INFECTION” (METRIOPHARM AG, priority 2020, published 2024).
# Like-named read-outs stand apart in the source and are kept apart here.
# Assays:
# [1] = system: murine peritoneal macrophages
# From the text: Female C57131/6 mice (6-8 weeks old) were purchased from Envigo (San Petro al Natisone, Udine, Italy) and housed under standard laboratory conditions (specific-pathogen free). Food and water were applied ad libitum. Animal handling and the study protocol were in accordance with international guidelines.
# Four days after i.p. injection of 3% thioglycolate medium (w/v in distilled water; St Louis, MO USA), murine peritoneal macrophages (PM) were isolated according to the protocol of Zhang et al. (Curr. Protoc. Immunol. 2008, Chapter 14, Unit 14.1).
# Briefly, cells were collected by injecting 10 ml of complete medium (DMEM/F12 Medium containing 10% fetal calf serum) into the peritoneal cavity using a 30 cc syringe attached to a 19-G needle, followed by slowly withdrawing the lavage fluid. Cells were washed twice in PBS (phosphate buffered saline) and counted.
# One hour prior to LPS (lipopolysaccharide) stimulation (0.1 μg/ml; Escherichia coli 055:B5, St Louis, MO USA), cells (0.5×10^6 cells/well in 24-well plates with 1 ml total volume of medium) were pre-treated with scalar concentrations of 5-amino-2,3-dihydro-1,4-phthalazinedione sodium salt (ranging from 1 mM to 0.025 mM). Two independent experiments (each using cells pooled from three mice) were performed and secreted cytokine levels were determined 24, 48 and 72 h after LPS stimulation using ELISA technique.
# [2] = system: chronic fatigue; settings: human, in vivo
# [3] = system: SARS-CoV-2; settings: Vero B4 cell culture; Schumann et al. (2020); cited from earlier work
# [4] = system: dyspnea; settings: human, in vivo
# [5] = system: joint pain; settings: human, in vivo
# [6] = system: cigarette smoke-induced 3-nitrotyrosine formation in the lung parenchyma; settings: for 3-nitrotyrosine stained surface area, mean ± SEM: n=5
# From the text: The isolated, ventilated and perfused mouse lung system (ILU) is an established model for studying acute effects of various conditions and drugs on lung parenchyma and vasculature. It is mainly used for examining effects of hypoxia and for evaluating the efficacy of potential drugs on the hypoxic pulmonary vasoreaction (cf. Weissmann et al. (2006) Proc Natl Acad Sci USA 103: 19093-19098).
# C57BL/6J mice (n=25, 5 per group; male/female, 3-6 months, 20-30 g; Charles River GmbH, Sulzfeld, Germany) were anesthetized with a ketamine (100 mg/kg body weight) and xylazine (20 mg/kg body weight) intraperitoneal injection (Ceva Tiergesundheit GmbH, Dusseldorf, Germany) containing heparin (50 I.E. heparin/g body weight; Ratiopharm GmbH, Ulm, Germany). […] Lungs were ventilated in an isolated chamber using normoxic gas (21% O2, 5% CO2, 74% N2; 150 breaths per minute at the PEEP (positive end-expiratory pressure) of 3 cm H2O) and perfused with a modified Krebs-Henseleit buffer (120.0 mM NaCl, 4.3 mM KCl, 1.1 mM KH2PO4, 2.4 mM CaCl2, 1.3 mM MgCl2, 13.14 mM glucose, 0.25 mM hydroxyethyl starch 200000/0.5, 25.0 mM NaHCO3 adjusted to a constant pH range of […] L-arginine; Serag-Wissner GmbH & Co. KG, Naila, Germany) at a temperature of 37° C. Lung weight, right and left ventricle pressure, as well as ventilatory pressure were monitored and recorded during the whole experimental procedure. After 5-10 minutes, when the lung was properly flushed and all the parameters were stable, 5-amino-2,3-dihydro-1,4-phthalazinedione sodium salt was applied by adding 150 μl of a stock solution to 15 ml of the circulating perfusion buffer. The substance was applied 10 minutes prior to the first cigarette smoke application. Cigarette smoke was applied via trachea while lung is perfused with the buffer containing 5-amino-2,3-dihydro-1,4-phthalazinedione sodium salt. […] 50 ml of the cigarette smoke were taken via a syringe and applied to the lung via trachea (FIG. 4A) in deep breaths (periodic inflation for 3-4 s) over a period of 5 min. The application was done manually while carefully monitoring the inspiratory pressure to avoid damage of the lung. The cigarette smoke application was repeated three times with a 1 hour break in-between.
# Five treatment groups (n=5, respectively) were investigated: • A: room air exposure • B: cigarette smoke+diluent (buffer solution) • C: cigarette smoke+0.5 mM 5-amino-2,3-dihydro-1,4-phthalazinedione sodium salt • D: cigarette smoke+1 mM 5-amino-2,3-dihydro-1,4-phthalazinedione sodium salt • E: cigarette smoke+2 mM 5-amino-2,3-dihydro-1,4-phthalazinedione sodium salt
# 5-amino-2,3-dihydro-1,4-phthalazinedione sodium salt Form I was dissolved in water for injection (vehicle) at the required concentrations described above. Stock solutions were prepared in water for injection. Further 1:100 dilutions were made with modified Krebs-Henseleit buffer (see above). Stock solutions were stored at −70° C. in appropriate aliquots. The required amount of stock solution was thawed, and the corresponding working solution was prepared for immediate use.
# One hour after the third cigarette smoke application lungs were removed from the system and fixed by inflating with formalin solution (via trachea) at the pressure of 12-15 cm H2O for two hours at room temperature. Afterwards the fixed lungs were kept in PBS (phosphate buffer saline, see below) at +4° C. until further dehydration and paraffin embedding. Paraffin blocks were cut 3 μm thick, dried overnight at 37° C. and stained for 3-nitrotyrosine (3-NT).
# [7] = 1 mM, pre-treatment 1 h prior to LPS (0.1 μg/ml), LPS only = 100%, C57 mice PMs
compound,measurement,setting,value
"Nc1cccc2c(=O)[nH][nH]c(=O)c12.[Na] [5-amino-2,3-dihydro-1,4-phthalazinedione sodium salt]",reduction of IL-1-beta level,[1]; [7],~50%
same,reduction of IL-6 level,[1]; [7],~80%
same,reduction of IL-12 level,[1]; [7],~60%
same,reduction of TNF-alpha level,[1]; [7],about 40%
same,cytokine reduction in PMs of a second mouse strain (Balb/c),"[1]; Balb/c PMs, six concentrations ranging from 1 mM to 0.25 mM, data not shown",clear dose-dependency
same,cytokine secretion of unstimulated murine PMs,"[1]; no LPS stimulation, data not shown",did not affect
same,symptoms of chronic fatigue,[2],continuous waning of the symptoms
same,replication of SARS-CoV-2,[3],almost completely block
same,physical performance (dyspnea),[4],continuous improvement of the physical performance
same,joint pain,[5],continuous waning of the joint pain
same,"cigarette smoke induced 3-nitrotyrosine formation (immunohistochemistry, in words)",[6]; 0.5 mM in perfusion buffer,moderate effect
same,"cigarette smoke induced 3-nitrotyrosine formation (immunohistochemistry, in words)",[6]; 1 mM in perfusion buffer,almost completely abolished
same,"cigarette smoke induced 3-nitrotyrosine formation (immunohistochemistry, in words)",[6]; 2 mM in perfusion buffer,almost completely abolished
same,"3-nitrotyrosine stained surface area, mean ± SEM",[6]; cigarette smoke + 0.5 mM in perfusion buffer,2.24 ± 0.28 % area
same,"3-nitrotyrosine stained surface area, mean ± SEM",[6]; cigarette smoke + 1 mM in perfusion buffer,0.72 ± 0.26 % area
same,"3-nitrotyrosine stained surface area, mean ± SEM",[6]; cigarette smoke + 2 mM in perfusion buffer,0.37 ± 0.13 % area
